In patent US20260364184A1, “COMPOUND BASED ON OXOISOINDOLINYL-SUBSTITUTED TETRAHYDROPYRIMIDINE-DIONE AND USE THEREOF” (GLUETACS THERAPEUTICS (SHANGHAI) CO., LTD., priority 2023, published 2026):

Experiments:
[1] = tested on: Human neuroblastoma cell line (SK-N-AS); assay: Inhibition of SK-N-AS cell proliferation (CellTiter luminescent viability); format: cell-based; details: Table II2, EZH2 inhibitor-based, 96 hours; for inhibition at 0.01 µM: 10 nM, read-out: Inhibition Rate at 10 nM (%); for inhibition at 0.5 µM: 500 nM, read-out: Inhibition Rate at 500 nM (%)
Protocol: The tumor cells used herein were cultured in a cell culture medium listed in table 3 at 37 °C in an incubator with 5% CO2. Prior to experimentation, all cell lines used were correctly identified by STR profiling, and tested negative for mycoplasma contamination using a mycoplasma detection kit through routine screenings.
The IC50 values of the compounds of the present disclosure (including the compounds in Table 1, Table 2, and Examples 1-468) were determined using the CellTiter-Meiluncell Luminescent Cell Viability Assay Kit from Dalian Meilun Biotech Co., Ltd. The detailed procedure is as follows: Tumor cells were seeded in 96-well cell culture plates at the densities specified in Table 4. On the following day, the test compounds of the present disclosure were subjected to serial dilution. The dilution can be performed according to one of the following two methods: • (1) The first dilution method: The test compounds of the present disclosure (including the compounds in Table 1, Table 2, and Examples 1-468) were subjected to 5-fold serial dilutions starting from a highest concentration of 2000 μM, resulting in a total of 9 concentrations from high to low (2000, 400, 80, 16, 3.2, 0.64, 0.128, 0.0256, 0.00512 μM). Subsequently, 0.5 μL of the test compound dilution was transferred into the 96-well plate containing the cells, with each well containing 100 μL of cell culture medium. […] Into the 96-well plate, the diluted test compounds and corresponding detection reagents were added, resulting in final test compound concentrations of 500 nM and 10 nM, respectively. The experimental procedure is described below using the diluted 2 μM test compound as an example.
0.5 μL of the aforementioned diluted compound of the present disclosure (including the compounds in Table 1, Table 2, and Examples 1-468) was added to the seeded cells in 100 μL of medium, yielding a final test compound concentration of 10 nM. After the cells were treated with the compounds of the present disclosure for a specified period, the cell viability assay reagent was added to the culture medium according to the kit's instructions to determine cell viability. […] All controls were treated using the same procedure as the compounds of the present disclosure. The growth inhibition curves for the compounds of the present disclosure were plotted using Prism GraphPad software, and the IC50 values were calculated therefrom.

EGFR = molecular target: T1, EGFR (Homo sapiens, UniProt P00533); assay: Western blot degradation of EGFR; format: cell-based; details: H1975 Cell; 24 hours
T1 construct: L858R/T790M in cis, heterozygous with wild type), Western blot
T1 sequence (P00533 25-1210): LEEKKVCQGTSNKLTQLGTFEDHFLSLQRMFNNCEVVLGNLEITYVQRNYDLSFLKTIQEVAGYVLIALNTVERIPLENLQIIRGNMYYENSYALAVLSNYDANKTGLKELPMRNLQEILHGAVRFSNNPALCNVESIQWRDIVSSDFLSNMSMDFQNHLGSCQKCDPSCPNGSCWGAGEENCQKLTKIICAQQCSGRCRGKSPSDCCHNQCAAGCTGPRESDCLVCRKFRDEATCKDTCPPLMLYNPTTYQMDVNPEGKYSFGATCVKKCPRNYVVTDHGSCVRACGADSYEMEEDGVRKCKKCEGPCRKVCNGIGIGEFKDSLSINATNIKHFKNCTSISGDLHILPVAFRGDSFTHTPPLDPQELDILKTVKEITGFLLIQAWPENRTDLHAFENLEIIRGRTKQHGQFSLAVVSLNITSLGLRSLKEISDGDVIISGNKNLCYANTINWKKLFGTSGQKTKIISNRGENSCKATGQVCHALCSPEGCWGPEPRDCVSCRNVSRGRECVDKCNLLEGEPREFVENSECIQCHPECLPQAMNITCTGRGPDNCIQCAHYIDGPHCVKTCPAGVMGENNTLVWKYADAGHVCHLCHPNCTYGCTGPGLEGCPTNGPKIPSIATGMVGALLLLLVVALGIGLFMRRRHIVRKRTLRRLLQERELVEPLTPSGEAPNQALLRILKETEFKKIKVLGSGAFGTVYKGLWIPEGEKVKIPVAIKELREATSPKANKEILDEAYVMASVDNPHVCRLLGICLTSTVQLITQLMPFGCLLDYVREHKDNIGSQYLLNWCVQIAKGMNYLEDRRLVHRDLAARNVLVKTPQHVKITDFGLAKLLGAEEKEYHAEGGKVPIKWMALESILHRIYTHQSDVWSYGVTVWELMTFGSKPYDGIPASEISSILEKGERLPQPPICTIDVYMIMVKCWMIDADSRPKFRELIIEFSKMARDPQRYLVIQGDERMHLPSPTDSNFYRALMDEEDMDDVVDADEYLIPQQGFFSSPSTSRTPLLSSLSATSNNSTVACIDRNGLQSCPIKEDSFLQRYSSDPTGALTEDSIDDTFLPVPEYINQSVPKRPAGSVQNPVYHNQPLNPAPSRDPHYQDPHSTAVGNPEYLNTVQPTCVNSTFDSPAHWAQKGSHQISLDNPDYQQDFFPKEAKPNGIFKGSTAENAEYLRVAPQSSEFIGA
T1 sequence (Q96SW2 whole entry partner): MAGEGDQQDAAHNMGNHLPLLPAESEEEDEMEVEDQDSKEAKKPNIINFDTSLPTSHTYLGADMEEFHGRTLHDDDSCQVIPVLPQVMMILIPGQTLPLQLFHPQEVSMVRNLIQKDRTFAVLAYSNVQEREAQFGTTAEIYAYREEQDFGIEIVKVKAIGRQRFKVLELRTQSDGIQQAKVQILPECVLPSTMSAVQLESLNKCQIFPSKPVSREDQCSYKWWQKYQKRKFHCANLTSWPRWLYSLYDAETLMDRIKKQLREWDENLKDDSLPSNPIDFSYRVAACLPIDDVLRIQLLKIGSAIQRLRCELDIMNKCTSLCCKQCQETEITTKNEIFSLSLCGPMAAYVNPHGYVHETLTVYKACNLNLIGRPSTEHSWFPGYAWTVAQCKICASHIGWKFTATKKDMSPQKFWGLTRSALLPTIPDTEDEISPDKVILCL
Protocol: Conventional Western blot assay was performed to evaluate the effects of the compounds of the present disclosure on the expression of target proteins in cells.
(1) Cell Seeding and Protein Harvesting: The selected cells were processed according to the cell seeding procedure and protein harvesting procedure in Table II-2.
(2) To the collected supernatant, 5×SDS sample loading buffer was added, followed by denaturation at 95 °C for 5 minutes. The denatured samples were then separated by SDS-PAGE electrophoresis on a polyacrylamide gel. Proteins were transferred to a nitrocellulose membrane (0.45 μm NC membrane), blocked with blocking buffer at room temperature for 1 hour, and subjected to antibody incubation and development procedures according to the antibody manufacturer's instructions (Cell Signaling Technology).
Half-Maximal Degradation Concentration value (the drug concentration required for degrading proteins by 50%, abbreviated as DC50) reads method: comparing the grayscale values of Western blot bands from drug-treated samples with those from blank DMSO-treated controls, and identifying the drug concentration range at which the grayscale value is half that of the DMSO-treated control bands.
DC50 values can be calculated using ImageJ software to measure grayscale values of Western blot bands from drug-treated samples. The concentration-response curve is fitted to estimate the drug concentration corresponding to half the grayscale value.
Target protein remaining (%) refers to the percentage of target protein remaining in cells after treatment with protein degrader compounds.
Calculation method for target protein remaining (%): Use ImageJ software to measure grayscale values of Western blot bands from drug (protein degrader)-treated samples. The grayscale value of drug-treated bands is divided by that of internal control protein bands, and the resulting quotient is normalized to obtain the relative percentage of remaining target protein after protein degrader treatment.
Target protein degradation rate (%)=1−target protein remaining (%).

Row | Structure (SMILES) | inhibition at 0.01 µM [1] | inhibition at 0.5 µM [1] | Degradation of substrate protein EGFR (substrate protein remaining %) (EGFR)
1 | CCN(c1cc(-c2ccc(CN3CCN(CC4CCN(c5cccc6c5C(=O)N(N5CCC(=O)NC5=O)C6=O)CC4)CC3)cc2)cc(C(=O)NCc2c(C)cc(C)[nH]c2=O)c1C)C1CCOCC1 [GT-08519, N-((4,6-dimethyl-2-oxo-1,2-dihydropyridin-3-yl)methyl)-4′-((4-((1-(2-(2,4-dioxotetrahydropyrimidin-1(2H)-yl)-1,3-dioxoisoindolin-4-yl)piperidin-4-yl)methyl)piperazin-1-yl)methyl)-5-(ethyl(tetrahydro-2H-pyran-4-yl)amino)-4-methyl-[1,1′-biphenyl]-3-carboxamide] | 10 to 15% | 20 to 30% | 
2 | COc1cc(N2CCC(N3CCN(CC4CCN(c5ccc6c(c5)C(=O)N(N5CCC(=O)NC5=O)C6=O)CC4)CC3)CC2)c(C)cc1Nc1ncc(Br)c(Nc2ccc3nccnc3c2P(C)(C)=O)n1 [GT-05997, 5-(4-((4-(1-(4-((5-bromo-4-((5-(dimethylphosphoryl)quinoxalin-6-yl)amino)pyrimidin-2-yl)amino)-5-methoxy-2-methylphenyl)piperidin-4-yl)piperazin-1-yl)methyl)piperidin-1-yl)-2-(2,4-dioxotetrahydropyrimidin-1(2H)-yl)isoindoline-1,3-dione] |  |  | A (0%≤substrate protein remaining %≤80%)
3 | CC(C)n1nc(N2CCN(CC3CCN(c4ccc5c(c4)C(=O)N(N4CCC(=O)NC4=O)C5=O)CC3)CC2)c2cnc(Nc3ccnc(-c4cnn(S(=O)(=O)C5CC5)c4)n3)cc21 [GT-06073, 5-(4-((4-(6-((2-(1-(cyclopropylsulfonyl)-1H-pyrazol-4-yl)pyrimidin-4-yl)amino)-1-isopropyl-1H-pyrazolo[4,3-c]pyridin-3-yl)piperazin-1-yl)methyl)piperidin-1-yl)-2-(2,4-dioxotetrahydropyrimidin-1(2H)-yl)isoindoline-1,3-dione] |  |  | A (0%≤substrate protein remaining %≤80%)
4 | CN(CC1CCN(c2ccc3c(c2)C(=O)N(N2CCC(=O)NC2=O)C3=O)CC1)C1CCN(c2ccc(Nc3ncc4nc(Nc5ccccc5)n(C5CCCC5)c4n3)cc2)CC1 [GT-05843, 5-(4-(((1-(4-((9-cyclopentyl-8-(phenylamino)-9H-purin-2-yl)amino)phenyl)piperidin-4-yl)(methyl)amino)methyl)piperidin-1-yl)-2-(2,4-dioxotetrahydropyrimidin-1(2H)-yl)isoindoline-1,3-dione] |  |  | A (0%≤substrate protein remaining %≤80%)
5 | O=C1CCN(N2Cc3cc(CN4CCN(C5CCN(c6ccc(Nc7ncc8nc(Nc9ccccc9)n(C9CCCC9)c8n7)cc6)CC5)CC4)ccc3C2=O)C(=O)N1 [GT-05914, 1-(5-((4-(1-(4-((9-cyclopentyl-8-(phenylamino)-9H-purin-2-yl)amino)phenyl)piperidin-4-yl)piperazin-1-yl)methyl)-1-oxoisoindolin-2-yl)dihydropyrimidine-2,4 (1H,3H)-dione] |  |  | A (0%≤substrate protein remaining %≤80%)
6 | CN(Cc1ccc2c(c1)C(=O)N(N1CCC(=O)NC1=O)C2=O)C1CCN(c2ccc(Nc3ncc4nc(Nc5ccccc5)n(C5CCCC5)c4n3)cc2)CC1 [GT-07113, 5-(((1-(4-((9-cyclopentyl-8-(phenylamino)-9H-purin-2-yl)amino)phenyl)piperidin-4-yl)(methyl)amino)methyl)-2-(2,4-dioxotetrahydropyrimidin-1(2H)-yl)isoindoline-1,3-dione] |  |  | A (0%≤substrate protein remaining %≤80%)
7 | COc1cc(N2CCC(N3CCN(CC4CCN(c5cccc6c5C(=O)N(N5CCC(=O)NC5=O)C6=O)CC4)CC3)CC2)c(C)cc1Nc1ncc(Br)c(Nc2ccc3nccnc3c2P(C)(C)=O)n1 [GT-05998, 4-(4-((4-(1-(4-((5-bromo-4-((5-(dimethylphosphoryl)quinoxalin-6-yl)amino)pyrimidin-2-yl)amino)-5-methoxy-2-methylphenyl)piperidin-4-yl)piperazin-1-yl)methyl)piperidin-1-yl)-2-(2,4-dioxotetrahydropyrimidin-1(2H)-yl)isoindoline-1,3-dione] |  |  | A (0%≤substrate protein remaining %≤80%)
8 | CCN(c1cc(-c2ccc(N3CCN(CC4CCN(c5cccc6c5C(=O)N(N5CCC(=O)NC5=O)C6=O)CC4)CC3)cc2)cc(C(=O)NCc2c(C)cc(C)[nH]c2=O)c1C)C1CCOCC1 [GT-08521, N-((4,6-dimethyl-2-oxo-1,2-dihydropyridin-3-yl)methyl)-4′-(4-((1-(2-(2,4-dioxotetrahydropyrimidin-1(2H)-yl)-1,3-dioxoisoindolin-4-yl)piperidin-4-yl)methyl)piperazin-1-yl)-5-(ethyl(tetrahydro-2H-pyran-4-yl)amino)-4-methyl-[1,1′-biphenyl]-3-carboxamide] | 20 to 30% | 30 to 40% | 
9 | COc1cc(N2CCC(N3CCN(Cc4ccc5c(c4)CN(N4CCC(=O)NC4=O)C5=O)CC3)CC2)c(C)cc1Nc1ncc(Br)c(Nc2ccc3nccnc3c2P(C)(C)=O)n1 [GT-05996, 1-(5-((4-(1-(4-((5-bromo-4-((5-(dimethylphosphoryl)quinoxalin-6-yl)amino)pyrimidin-2-yl)amino)-5-methoxy-2-methylphenyl)piperidin-4-yl)piperazin-1-yl)methyl)-1-oxoisoindolin-2-yl)dihydropyrimidine-2,4 (1H,3H)-dione] |  |  | A (0%≤substrate protein remaining %≤80%)
10 | CCCc1cc(C)[nH]c(=O)c1CNC(=O)c1cc(-c2ccc(N3CCN(C(C)C)CC3)nc2)cc2c1cnn2C(C)C [UNC1999, reference compound] | 0 to 5% | 0 to 5% | 
11 | COc1cc(N2CCC(N3CCN(Cc4ccc5c(c4)C(=O)N(N4CCC(=O)NC4=O)C5=O)CC3)CC2)c(C)cc1Nc1ncc(Br)c(Nc2ccc3nccnc3c2P(C)(C)=O)n1 [GT-06154, 5-((4-(1-(4-((5-bromo-4-((5-(dimethylphosphoryl)quinoxalin-6-yl)amino)pyrimidin-2-yl)amino)-5-methoxy-2-methylphenyl)piperidin-4-yl)piperazin-1-yl)methyl)-2-(2,4-dioxotetrahydropyrimidin-1(2H)-yl)isoindoline-1,3-dione] |  |  | A (0%≤substrate protein remaining %≤80%)
12 | COc1cc(N2CCN(Cc3ccc4c(c3)CN(N3CCC(=O)NC3=O)C4=O)CC2)c(C)cc1Nc1ncc(Br)c(Nc2ccc3nccnc3c2P(C)(C)=O)n1 [GT-05946, 1-(5-((4-(4-((5-bromo-4-((5-(dimethylphosphoryl)quinoxalin-6-yl)amino)pyrimidin-2-yl)amino)-5-methoxy-2-methylphenyl)piperazin-1-yl)methyl)-1-oxoisoindolin-2-yl)dihydropyrimidine-2,4 (1H,3H)-dione] |  |  | A (0%≤substrate protein remaining %≤80%)
